Test results published in publication PMC2813745, “A novel inhibitor of the PI3K/Akt pathway based on the structure of inositol 1,3,4,5,6-pentakisphosphate” (British Journal of Cancer, 2010).

system: MCF7; test: Cell survival by cell counting, MCF7; type: cell-based, human; settings: MCF7, 72 h, 20 nM 4-OH Tamoxifen, 50 μM 2-O-Bn-InsP5 alone or in combination
Method: Cells seeded in a 24-well plate were treated with the indicated compounds in serum free DMEM or DMEM containing 0.5% FBS (PC3). After 72 h, the number of surviving cells was assessed by manual cell counting or by using the cell counter CDA-500 (Sysmex, Milton Keynes, UK). Alternatively, after 48 h, the number of apoptotic cells was assessed by acridine orange/ethidium bromide assay as described ([Piccolo et al, 2004]; [Maffucci et al, 2005]). SRB test was carried out in SKOV-3 and PC3 seeded in 96-well plate (3800 cells per well or 5800 cells per well, respectively) after 72 h of treatment as described ([Cappella et al, 2001]).
Data are mean±s.e. of n=4 independent experiments carried out in duplicate. […] Data are mean±s.e. of n=5 independent experiments carried out in duplicate. […] Data are mean±s.e. of n=6 independent experiments carried out in duplicate. […] Data are mean±s.e. of n=2 independent experiments carried out in duplicate. In all cases (A–D), cells were treated for 72 h and the number of surviving cells was assessed by cell counting. […] In all cases (E, F), cells were treated for 72 h and the number of surviving cells was assessed by SRB assay and data are mean±s.e. of two experiments carried out in quadruplicate.

Molecule	number of surviving cells
4-hydroxy-tamoxifen [4-OH tamoxifen, reference compound]	reduced the number of surviving cells

molecular target: T1, PDK1 (Homo sapiens, UniProt O15530); test: SelectScreen kinase profiling: PDK1; type: biochemical; settings: 1 µM compound; [ATP] 100 µM; single point
T1 sequence (O15530 1-556): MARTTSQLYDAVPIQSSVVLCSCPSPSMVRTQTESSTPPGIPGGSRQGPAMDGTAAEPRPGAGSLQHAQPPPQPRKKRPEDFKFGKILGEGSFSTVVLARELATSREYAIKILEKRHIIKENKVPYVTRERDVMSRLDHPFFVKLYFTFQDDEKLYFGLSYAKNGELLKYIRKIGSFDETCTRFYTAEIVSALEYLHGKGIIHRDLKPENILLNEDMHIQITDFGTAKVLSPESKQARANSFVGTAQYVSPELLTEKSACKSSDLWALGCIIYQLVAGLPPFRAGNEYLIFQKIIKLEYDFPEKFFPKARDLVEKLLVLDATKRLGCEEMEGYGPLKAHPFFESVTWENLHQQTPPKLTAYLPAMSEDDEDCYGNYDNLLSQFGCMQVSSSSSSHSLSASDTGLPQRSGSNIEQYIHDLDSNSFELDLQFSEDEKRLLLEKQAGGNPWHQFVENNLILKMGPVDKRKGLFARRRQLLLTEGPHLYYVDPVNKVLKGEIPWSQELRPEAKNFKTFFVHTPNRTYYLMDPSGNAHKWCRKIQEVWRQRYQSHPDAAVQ
Method: Effect of the indicated compounds on the activity of various kinases was assessed by SelectScreen Kinase Profiling Service (Invitrogen-Life Technologies, Paisley, UK). Assays were performed using 1 μM of the tested compounds and ATP concentration as indicated in the corresponding tables. In the case of […] a screen using 10 μM of the compound was also carried out, as indicated in the corresponding table.

Molecule	% Inhibition Mean [%]
O=P(O)(O)O[C@H]1[C@H](OP(=O)(O)O)[C@@H](OP(=O)(O)O)[C@H](OP(=O)(O)O)[C@@H](OP(=O)(O)O)[C@H]1OP(=O)(O)O [Ins(1,2,3,4,5,6)P6]	18
O=P(O)(O)O[C@@H]1[C@H](O)[C@H](O)[C@@H](OP(=O)(O)O)[C@H](OP(=O)(O)O)[C@H]1O [Ins(1,4,5)P3]	17

The next lines start with the values.

% Inhibition Mean [%]	Molecule
56	O=P(O)(O)O[C@H]1[C@H](O)[C@@H](OP(=O)(O)O)[C@H](OP(=O)(O)O)[C@@H](OP(=O)(O)O)[C@H]1O [Ins(1,3,4,5)P4]
33	O=P(O)(O)O[C@H]1[C@H](OP(=O)(O)O)[C@@H](OP(=O)(O)O)[C@@H](O)[C@@H](O)[C@@H]1OP(=O)(O)O [Ins(1,4,5,6)P4]
35	O=P(O)(O)O[C@H]1[C@H](OP(=O)(O)O)[C@@H](OP(=O)(O)O)[C@@H](O)[C@@H](O)[C@@H]1OP(=O)(O)O [Ins(3,4,5,6)P4]
